Here are results for twelve compounds from patent US11969002B2, “Savoury and mouthfulness taste enhancers” (LUCTA, S.A., priority 2018, dated 2024).

The subject of the test is kokumi and/or umami taste. In words: Sensory test: taste threshold in model broth (duo-trio test, sensory panel). To be noted: for taste quality with the savoury taste threshold in model broth: descriptor in brackets after the threshold value; for minimal effective concentration: duo-trio-test ISO 10399:2017, model broth as constant blank, successive 1:2 dilutions in model broth, panel value averaged over three sessions, read-out: savoury taste threshold in model broth. The format is in vivo. From the text: This sensory test allowed evaluating the capacity of the compounds of formula (IA), (IB), (IC), (ID), (IE), (IF), (IG), (IH) and (IJ) as defined above to enhance taste; particularly kokumi and/or umami taste. This test allowed measuring the taste threshold of the mixtures comprising an amount from 86% to 99% by weight measured by quantitative proton-NMR of a compound of formula (IA), (IB), (IC), (ID), (IE), (IF), (IG), (IH) and (IJ) in model broth. The “taste threshold” refers to the minimum taste stimulus needed to detect the presence of a compound of formula (IA), (IB), (IC), (ID), (IE), (IF), (IG), (IH) and (IJ) of the present invention. The lower the taste threshold, the greater the capacity as enhancer; particularly greater the capacity as kokumi and/or umami enhancer.
Samples • Diluted samples of the mixtures comprising a compound of formula (IA), (IB), (IC), (ID), (IE), (IF), (IG) and (IJ) in an amount from 86% to 99% by weight measured by quantitative proton-NMR with model broth. • Model broth as constant […]. • Diluted samples of comparative samples with model broth: • Comparative compound 1: 5-(aminomethyl)-2-methylpyrimidin-4-amine (Berkshire, United Kingdom) • Comparative compound 2: (4-amino-2-methylpyrimidin-5-yl)methanol (Carbosynth-Berkshire, United Kingdom) • Comparative compound 3: Thiamine (Sigma-Aldrich, Steinheim, Germany)
Model broth: The model broth comprises the following composition: 1.9 g/L of sodium Sodium chloride (Sigma Aldrich, Steinheim, Germany); 1.9 g/L of mono sodium L-glutatmate (Merck, Darmastadt, Germany); 6.4 g/L of Maltodextrin (Sigma Aldrich, Steinheim, Germany); and 2.1 g/L yeast extract (Gistex GSX II, DSM Food specialities Savoury Ingredients; Delft, Netherlands). The model broth is prepared by mixing the ingrediets under agitation in an ultrasonic bath.
Diluted samples of the mixtures comprising a compound of formula (IA), (IB), (IC), (ID), (IE), (IF), (IG), (IH) and (IJ) in an amount from 86% to 99% by weight measured by quantitative proton-NMR of the present invention: The pH value of each individual mixture comprising an amount from 86% to 99% by weight measured by quantitative proton-NMR of a compound of formula (IA), (IB), (IC), (ID), (IE), (IF), (IG), (IH) and (IJ) was adjusted to 5.4 by the addition of the appropriate amount of formic acid. Each individual pH adjusted mixture thus obtained was diluted 1:2 successively with the model broth to obtain diluted solutions of the mixture comprising a compound of formula formula (IA), (IB), (IC), (ID), (IE), (IF), (IG), (IH) and (IJ) in a concentration from 10 μmol/L to 1000 μmol/L measured by quantitative proton-NMR.
Diluted samples of the comparative compounds 1-3. A mixture of each individual comparative compound 1-3 with model broth was prepared by successively dilution 1:2 of each individual comparative compound with model broth to obtain the diluted comparative solutions having a concentration from 10 μmol/L to 1000 μmol/L measured by quantitative proton-NMR of the comparative compound.
The diluted solutions of the present invention and the comparative solutions falling outside the scope of protection of the present invention obtained above were presented to the panelists with increasing concentrations of the tested solutions by means of the duo-trio-test according to ISO 10399:2017; using the model broth as constant blank. The panelists were asked to mark the differing samples.
The taste threshold is calculated by means of the geometric mean. The geometric mean of the last and the second last concentration was calculated and taken as the individual threshold. The threshold value of the sensory panel was approximated by averaging the threshold values of the individuals in three independent sessions. Values between individuals and separate sessions differed not more than two dilution steps (cf. Lawless, Harry T. “Sensory Evaluation of Food”. Springer, 2nd edition, 2010, pp. 125-145)

Take `Cc1ncc(CSC[C@H](N)C(=O)O)c(N)n1` (single isomer, unassigned) [Mixture comprising (IA), S-((4-amino-2-methylpyrimidin-5-yl)methyl)-L-cysteine]: the “taste quality with the savoury taste threshold in model broth” value (“taste quality” below) is “kokumi” and the minimal effective concentration was 120 µM.
For `CC(=O)C(CCO)SCc1cnc(C)nc1N` (single isomer, unassigned) [Mixture comprising (IB), 3-(((4-amino-2-methylpyrimidin-5-yl)methyl)thio)-5-hydroxy-pentan-2-one], in that order: “kokumi” and 40 µM.
For `Cc1ncc(CSCC(N)C(=O)NCC(=O)O)c(N)n1` (single isomer, unassigned) [Mixture comprising (IC), S-((4-amino-2-methylpyrimidin-5-yl)methyl)cysteinylglycine], in that order: “kokumi” and 880 µM.
For `Cc1ncc(CSCC2NC(=O)CNC2=O)c(N)n1` (single isomer, unassigned) [Mixture comprising (ID), 3-((((4-amino-2-methylpyrimidin-5-yl)methyl)thio)methyl)piperazine-2,5-dione], in that order: “kokumi” and 255 µM.
Consider `CCC(SCc1cnc(C)nc1N)C(C)=O` (single isomer, unassigned) [Mixture comprising (IE), 3-(((4-amino-2-methylpyrimidin-5-yl)methyl)thio)pentan-2-one], for which the “taste quality” value is reported as “kokumi” and the minimal effective concentration is 35 µM.
For `Cc1ncc(CSc2ccoc2C)c(N)n1` (single isomer, unassigned) [Mixture comprising (IF), 2-methyl-5-(((2-methylfuran-3-yl)thio)methyl)pyrimidin-4-amine], in that order: “kokumi” and 50 µM.
Regarding `Cc1ncc(CSCc2ccco2)c(N)n1` (single isomer, unassigned) [Mixture comprising (IG), 5-(((furan-2-ylmethyl)thio)methyl)-2-methylpyrimidin-4-amine], the “taste quality” value was “kokumi” and the minimal effective concentration came to 120 µM.
For `CSCc1cnc(C)nc1N` (single isomer, unassigned) [Mixture comprising (IH), 2-methyl-5-((methylthio)methyl)pyrimidin-4-amine], in that order: “kokumi” and 70 µM.
Consider `Cc1ncc(CS)c(N)n1` (single isomer, unassigned) [Mixture comprising (IJ), (4-amino-2-methylpyrimidin-5-yl)methanethiol], for which the “taste quality” value is recorded as “kokumi” and the minimal effective concentration amounted to 80 µM.
On to `Cc1ncc(CN)c(N)n1` [Comparative compound 1, 5-(aminomethyl)-2-methylpyrimidin-4-amine, reference compound], for which the minimal effective concentration was above 1100 µM.
As to `Cc1ncc(CO)c(N)n1` [Comparative compound 2, (4-amino-2-methylpyrimidin-5-yl)methanol, reference compound], the “taste quality” value is on record as “kokumi” and the minimal effective concentration amounted to 700 µM.
Regarding `Cc1ncc(C[n+]2csc(CCO)c2C)c(N)n1` [Comparative compound 3, Thiamine, reference compound], the minimal effective concentration amounted to 1200 µM.
